Measured values from patent publication US7579504B2, “ABCA1 elevating compounds” (Gilead Sciences, Inc., priority 2005, dated 2009).

Tested on: ABCA1 mRNA
Assay: ABCA1 mRNA induction in THP-1 cells, QuantiGene branched DNA assay
Type: cell-based
Details: Homo sapiens, 18-20 hours, read-out: ABCA1 Induction Fold Increase over DMSO Vehicle
Protocol: Modulation of expression of ABCA1 mRNA levels by the compounds of the invention was determined in the following assays.
Induction of ABC1 in THP-1 cells, was measured using QuantiGene® branched DNA assay as per manufacturer's instructions. Cultures of THP-1 were grown to subconfluence in DMEM/10% FBS before replacement with DMEM/BSA and 10 and 3 μM concentrations of the test compounds in DMSO for 18-20 hours. After treatment of cells with compounds, the cells were lysed with lysis buffer at 37° C. for 20 minutes. The cell lysate and ABCA1 specific probe (Genospectra, Inc., Fremont, Calif.) mix were added to the 96 well capture plate and hybridized at 53° C. for 16-18 hours. The signal was amplified using the amplifier and label probes provided with the QuantiGene® assay followed by addition of a luminescent alkaline phosphatase substrate, dioxitane. Luminescence was quantified in Victor V plate reader.
Step 1 • Cells are lysed to release mRNA in the presence of target probes. Target mRNA from lysed cells was then captured by hybridization and transferred to the Capture Plate.
Step 2 • Signal amplification was performed by hybridization of the bDNA Amplifier and Label Probe.
Step 3 • Addition of chemiluminescence substrate yielded a QuantiGene® signal proportional to the amount of mRNA present in the sample.
Table 1 presents the relative fold increase in ABCA1 expression over DMSO for compounds of the invention when tested at a concentration of 10 μM.

SMILES	fold induction at 10 µM
Cc1ccc(CNC(=O)[C@H]2CC[C@H](CN(Cc3ccccc3C)S(=O)(=O)c3ccccc3)CC2)cc1 [Compound 1, N-[(4-methylphenyl)methyl][4-({[(2-methylphenyl)methyl](phenylsulfonyl)amino}methyl)cyclohexyl]carboxamide]	4.2
Cc1ccc(CNC(=O)C2CCC(CN(Cc3cccc(F)c3F)S(=O)(=O)c3ccccc3)CC2)cc1 (stereo not drawn) [Compound 2, [4-({[(2,3-difluorophenyl)methyl](phenylsulfonyl)amino}methyl)cyclohexyl]-N-[(4-methylphenyl)methyl]carboxamide]	6.3
Cc1ccc(CNC(=O)C2CCC(CN(Cc3ccc(F)cc3)S(=O)(=O)c3ccccc3)CC2)cc1 (stereo not drawn) [Compound 3, [4-({[(4-fluorophenyl)methyl](phenylsulfonyl)amino}methyl)cyclohexyl]-N-[(4-methylphenyl)methyl]carboxamide]	4.8
Cc1ccc(CNC(=O)C2CCC(CN(Cc3ccccc3)S(=O)(=O)c3ccccc3)CC2)cc1 (stereo not drawn) [Compound 4, N-[(4-methylphenyl)methyl](4-{[benzyl(phenylsulfonyl)amino]methyl}cyclohexyl)carboxamide]	3.8
Cc1ccc(CNC(=O)C2CCC(CN([C@H](C)c3ccccc3)S(=O)(=O)c3ccccc3)CC2)cc1 (stereo partly drawn) [Compound 5, (4-{[((1R)-1-phenylethyl)(phenylsulfonyl)amino]methyl}cyclohexyl)-N-[(4-methylphenyl)methyl]carboxamide]	6.4
Cc1ccc(CNC(=O)[C@H]2CC[C@H](CN([C@@H](C)c3ccccc3)S(=O)(=O)c3ccccc3)CC2)cc1 [Compound 6, (4-{[((1S)-1-phenylethyl)(phenylsulfonyl)amino]methyl}cyclohexyl)-N-[(4-methylphenyl)methyl]carboxamide]	3.2
COc1cccc(S(=O)(=O)N(Cc2ccccc2)CC2CCC(C(=O)NCc3ccc(C)cc3)CC2)c1 (stereo not drawn) [Compound 7, [4-({[(3-methoxyphenyl)sulfonyl]benzylamino}methyl)cyclohexyl]-N-[(4-methylphenyl)methyl]carboxamide]	5.4
CC(=O)Nc1ccc(S(=O)(=O)N(Cc2ccccc2)CC2CCC(C(=O)NCc3ccc(C)cc3)CC2)cc1 (stereo not drawn) [Compound 8, N-[4-({[(4-{N-[(4-methylphenyl)methyl]carbamoyl}cyclohexyl)methyl]benzylamino}sulfonyl)phenyl]acetamide]	3.1
Cc1ccc(CNC(=O)C2CCC(CN(Cc3ccccc3)S(=O)(=O)c3ccccc3C)CC2)cc1 (stereo not drawn) [Compound 9, N-[(4-methylphenyl)methyl][4-({[(2-methylphenyl)sulfonyl]benzylamino}methyl)cyclohexyl]carboxamide]	4.9
Cc1ccc(CNC(=O)C2CCC(CN(Cc3ccccc3)S(=O)(=O)c3ccc(F)cc3F)CC2)cc1 (stereo not drawn) [Compound 10, [4-({[(2,4-difluorophenyl)sulfonyl]benzylamino}methyl)cyclohexyl]-N-[(4-methylphenyl)methyl]carboxamide]	2.2
Cc1ccc(CNC(=O)C2CCC(CN(Cc3ccccc3)S(=O)(=O)c3ccc(Cl)cc3F)CC2)cc1 (stereo not drawn) [Compound 11, [4-({[(4-chloro-2-fluorophenyl)sulfonyl]benzylamino}methyl)cyclohexyl]-N-[(4-methylphenyl)methyl]carboxamide]	1.9
Cc1ccc(CNC(=O)C2CCC(CN(Cc3ccccc3)S(=O)(=O)c3ccc(F)c(F)c3)CC2)cc1 (stereo not drawn) [Compound 12, [4-({[(3,4-difluorophenyl)sulfonyl]benzylamino}methyl)cyclohexyl]-N-[(4-methylphenyl)methyl]carboxamide]	2.6
Cc1ccc(CNC(=O)C2CCC(CN(Cc3ccccc3)S(=O)(=O)c3ccc(C(C)(C)C)cc3)CC2)cc1 (stereo not drawn) [Compound 13, {4-[({[4-(tert-butyl)phenyl]sulfonyl}benzylamino)methyl]cyclohexyl}-N-[(4-methylphenyl)methyl]carboxamide]	2.7
Cc1ccc(CNC(=O)C2CCC(CN(Cc3ccccc3)S(=O)(=O)c3ccc(Cl)cc3Cl)CC2)cc1 (stereo not drawn) [Compound 14, [4-({[(2,4-dichlorophenyl)sulfonyl]benzylamino}methyl)cyclohexyl]-N-[(4-methylphenyl)methyl]carboxamide]	3.5
Cc1ccc(CNC(=O)C2CCC(CN(Cc3ccccc3)S(=O)(=O)c3cccs3)CC2)cc1 (stereo not drawn) [Compound 15, N-[(4-methylphenyl)methyl](4-{[benzyl(2-thienylsulfonyl)amino]methyl}cyclohexyl)carboxamide]	4.3
Cc1ccc(CNC(=O)C2CCC(CN(Cc3ccccc3)S(=O)(=O)c3ccc(F)c(F)c3F)CC2)cc1 (stereo not drawn) [Compound 16, N-[(4-methylphenyl)methyl][4-({benzyl[(2,3,4-trifluorophenyl)sulfonyl]amino}methyl)cyclohexyl]carboxamide]	1.9
Cc1ccc(CNC(=O)C2CCC(CN(Cc3ccccc3)S(=O)(=O)c3cc(F)cc(F)c3)CC2)cc1 (stereo not drawn) [Compound 17, [4-({[(3,5-difluorophenyl)sulfonyl]benzylamino}methyl)cyclohexyl]-N-[(4-methylphenyl)methyl]carboxamide]	4.5
COc1ccc(S(=O)(=O)N(Cc2ccccc2)CC2CCC(C(=O)NCc3ccc(C)cc3)CC2)cc1OC (stereo not drawn) [Compound 18, [4-({[(3,4-dimethoxyphenyl)sulfonyl]benzylamino}methyl)cyclohexyl]-N-[(4-methylphenyl)methyl]carboxamide]	1.6
Cc1ccc(CNC(=O)C2CCC(CN(Cc3ccccc3)S(=O)(=O)c3cc(F)ccc3F)CC2)cc1 (stereo not drawn) [Compound 19, [4-({[(2,5-difluorophenyl)sulfonyl]benzylamino}methyl)cyclohexyl]-N-[(4-methylphenyl)methyl]carboxamide]	4.9
Cc1ccc(CNC(=O)C2CCC(CN(Cc3ccccc3)S(=O)(=O)c3cccc(Cl)c3)CC2)cc1 (stereo not drawn) [Compound 20, [4-({[(3-chlorophenyl)sulfonyl]benzylamino}methyl)cyclohexyl]-N-[(4-methylphenyl)methyl]carboxamide]	4.3
Cc1ccc(CNC(=O)C2CCC(CN(Cc3ccccc3)S(=O)(=O)c3ccccc3F)CC2)cc1 (stereo not drawn) [Compound 21, [4-({[(2-fluorophenyl)sulfonyl]benzylamino}methyl)cyclohexyl]-N-[(4-methylphenyl)methyl]carboxamide]	4.4
Cc1ccc(CNC(=O)C2CCC(CN(Cc3ccccc3)S(=O)(=O)c3ccccc3Cl)CC2)cc1 (stereo not drawn) [Compound 22, [4-({[(2-chlorophenyl)sulfonyl]benzylamino}methyl)cyclohexyl]-N-[(4-methylphenyl)methyl]carboxamide]	4.1
Cc1ccc(CNC(=O)C2CCC(CN(Cc3ccccc3)S(=O)(=O)c3cc(C)cc(C)c3)CC2)cc1 (stereo not drawn) [Compound 23, [4-({[(3,5-dimethylphenyl)sulfonyl]benzylamino}methyl)cyclohexyl]-N-[(4-methylphenyl)methyl]carboxamide]	4.1
Cc1ccc(CNC(=O)C2CCC(CN(Cc3ccccc3)S(=O)(=O)c3cc(C(F)(F)F)cc(C(F)(F)F)c3)CC2)cc1 (stereo not drawn) [Compound 24, {4-[({[3,5-bis(trifluoromethyl)phenyl]sulfonyl}benzylamino)methyl]cyclohexyl}-N-[(4-methylphenyl)methyl]carboxamide]	0.9
Cc1ccc(CNC(=O)C2CCC(CN(Cc3ccccc3)S(=O)(=O)c3ccc(C)c(Cl)c3)CC2)cc1 (stereo not drawn) [Compound 25, [4-({[(3-chloro-4-methylphenyl)sulfonyl]benzylamino}methyl)cyclohexyl]-N-[(4-methylphenyl)methyl]carboxamide]	3.5
Cc1ccc(CNC(=O)C2CCC(CN(Cc3ccccc3)S(=O)(=O)c3cc(F)ccc3C)CC2)cc1 (stereo not drawn) [Compound 26, [4-({[(5-fluoro-2-methylphenyl)sulfonyl]benzylamino}methyl)cyclohexyl]-N-[(4-methylphenyl)methyl]carboxamide]	4.3
Cc1ccc(CNC(=O)C2CCC(CN(Cc3ccccc3)S(=O)(=O)c3cc(Cl)ccc3Cl)CC2)cc1 (stereo not drawn) [Compound 27, [4-({[(2,5-dichlorophenyl)sulfonyl]benzylamino}methyl)cyclohexyl]-N-[(4-methylphenyl)methyl]carboxamide]	3.7
Cc1ccc(CNC(=O)C2CCC(CN(Cc3ccccc3)S(=O)(=O)c3c(F)cccc3F)CC2)cc1 (stereo not drawn) [Compound 29, [4-({[(2,6-difluorophenyl)sulfonyl]benzylamino}methyl)cyclohexyl]-N-[(4-methylphenyl)methyl]carboxamide]	6.9
CC(=O)Nc1nc(C)c(S(=O)(=O)N(Cc2ccccc2)CC2CCC(C(=O)NCc3ccc(C)cc3)CC2)s1 (stereo not drawn) [Compound 30, N-[4-methyl-5-({[(4-{N-[(4-methylphenyl)methyl]carbamoyl}cyclohexyl)methyl]benzylamino}sulfonyl)-1,3-thiazol-2-yl]acetamide]	3.9
Cc1ccc(CNC(=O)C2CCC(CN(Cc3ccccc3)S(=O)(=O)c3cccc(F)c3)CC2)cc1 (stereo not drawn) [Compound 31, [4-({[(3-fluorophenyl)sulfonyl]benzylamino}methyl)cyclohexyl]-N-[(4-methylphenyl)methyl]carboxamide]	6.7
